# Measured values as given in US12479818B2, “Treatment of fibrosis with IRE1 small molecule inhibitors” (Cornell University, priority 2019, dated 2025).
# Tested on: 293T cells
# Assay: Growth assay (cytotoxicity)
# Format: cell-based, human
# Conditions: 2 day incubation, 0.5556 uM
# Procedure: A growth assay was performed to evaluate the compounds disclosed herein for cytotoxicity. […] 133.3 uL cDMEM was added to wells 1, 2, 3, 5, 6, and 7 in rows A, C, E and G of the dilution plate. Compounds were serially diluted leftwards in threefold dilutions (66.7 uL into 133.3 uL cDMEM). 20 μL of each dilution was transferred in duplicate (duplicates in vertical paired wells) to the cells plated in the 96-well plate shown in Table 5, to the total concentrations shown below. 200 uL cDMEM was added to media wells (wells G5-H8). The plate was then placed in a humidified chamber for a 2 day incubation, and then photographed (media was more yellow in wells with potent cell growth).
row,SMILES,% Growth at 0.5556 uM
1,"CCc1cc(-c2ccc(NS(=O)(=O)c3ccccc3Cl)nc2OC)cc2cnc(N[C@H]3CC[C@H](N)CC3)nc12 [Compound 37, N-(5-(2-(((1r,4r)-4-aminocyclohexyl)amino)-8-ethylquinazolin-6-yl)-6-methoxypyridin-2-yl)-2-chlorobenzene-sulfonamide]",D (D: > 75% to ≤ 100%)

# Same assay, conditions: 2 day incubation, 1.667 uM
row,SMILES,% Growth at 1.667 uM
1,"CCc1cc(-c2ccc(NS(=O)(=O)c3ccccc3Cl)nc2OC)cc2cnc(N[C@H]3CC[C@H](N)CC3)nc12 [Compound 37, N-(5-(2-(((1r,4r)-4-aminocyclohexyl)amino)-8-ethylquinazolin-6-yl)-6-methoxypyridin-2-yl)-2-chlorobenzene-sulfonamide]",C (C: > 50% to ≤ 75%)

# Same assay, conditions: 2 day incubation, 5 uM
row,SMILES,% Growth at 5 uM
1,"CCc1cc(-c2ccc(NS(=O)(=O)c3ccccc3Cl)nc2OC)cc2cnc(N[C@H]3CC[C@H](N)CC3)nc12 [Compound 37, N-(5-(2-(((1r,4r)-4-aminocyclohexyl)amino)-8-ethylquinazolin-6-yl)-6-methoxypyridin-2-yl)-2-chlorobenzene-sulfonamide]",B (B: > 25% to ≤ 50%)

# Target: IRE1a (Homo sapiens, UniProt O75460)
# Assay: IRE1a Endoribonuclease Nanoluciferase Assay (XBP1 luciferase reporter in 293T cells)
# Format: cell-based
# Set-up: endogenous in cells; host or cells: 293T
# Conditions: XBP1 nanoluciferase reporter in 293T cells, ER stressor; tested as the salt named
# IRE1a, sequence (O75460 19-977): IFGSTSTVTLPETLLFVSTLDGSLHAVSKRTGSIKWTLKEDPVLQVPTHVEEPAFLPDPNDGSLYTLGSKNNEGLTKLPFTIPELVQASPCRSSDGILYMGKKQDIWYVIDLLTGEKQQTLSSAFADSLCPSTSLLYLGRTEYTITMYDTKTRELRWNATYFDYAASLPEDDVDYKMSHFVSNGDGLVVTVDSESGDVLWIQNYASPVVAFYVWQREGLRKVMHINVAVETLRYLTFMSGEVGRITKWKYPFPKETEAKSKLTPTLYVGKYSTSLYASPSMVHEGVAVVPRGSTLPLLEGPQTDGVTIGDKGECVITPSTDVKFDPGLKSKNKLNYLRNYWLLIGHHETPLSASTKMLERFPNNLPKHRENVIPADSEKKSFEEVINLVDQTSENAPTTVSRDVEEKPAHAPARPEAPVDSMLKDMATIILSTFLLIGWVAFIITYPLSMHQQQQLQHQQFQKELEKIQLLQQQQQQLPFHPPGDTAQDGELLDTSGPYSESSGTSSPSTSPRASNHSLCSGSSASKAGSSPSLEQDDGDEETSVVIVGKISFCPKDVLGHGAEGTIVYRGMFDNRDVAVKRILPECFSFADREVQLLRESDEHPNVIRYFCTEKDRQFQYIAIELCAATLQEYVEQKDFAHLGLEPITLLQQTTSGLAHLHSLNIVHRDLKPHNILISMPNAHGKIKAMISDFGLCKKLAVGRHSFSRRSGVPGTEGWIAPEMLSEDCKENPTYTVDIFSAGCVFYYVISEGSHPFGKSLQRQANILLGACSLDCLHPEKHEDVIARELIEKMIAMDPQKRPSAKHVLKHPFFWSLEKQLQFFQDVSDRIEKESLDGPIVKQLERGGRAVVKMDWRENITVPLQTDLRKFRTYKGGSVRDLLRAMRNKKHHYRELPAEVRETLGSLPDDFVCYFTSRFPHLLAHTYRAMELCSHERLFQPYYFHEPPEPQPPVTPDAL
row,SMILES,EC50
1,"CCc1cc(-c2ccc(NS(=O)(=O)c3ccccc3Cl)nc2OC)cc2cnc(N[C@H]3CC[C@H](N)CC3)nc12 [Compound 37, N-(5-(2-(((1r,4r)-4-aminocyclohexyl)amino)-8-ethylquinazolin-6-yl)-6-methoxypyridin-2-yl)-2-chlorobenzene-sulfonamide]",< 5 nM
2,"Cc1cc2nc(N[C@H]3CC[C@H](N)CC3)ncc2cc1-c1ccc(NS(=O)(=O)c2ccccc2Cl)c(F)c1 [Compound 90, N-(4-(2-(((1r,4r)-4-aminocyclohexyl)amino)-7-methylquinazolin-6-yl)-2-fluorophenyl)-2-chlorobenzene-sulfonamide]",5 to 50 nM
3,"CCc1cc(-c2ccc(NS(=O)(=O)c3ccccc3Cl)nc2C)cc2cnc(N[C@@H]3CC[C@@H](N(C)C)C[C@@H]3F)nc12 [Compound 151, 2-chloro-N-(5-(2-(((1R,2S,4R)-4-(dimethylamino)-2-fluorocyclohexyl)amino)-8-ethylquinazolin-6-yl)-6-methylpyridin-2-yl)benzenesulfonamide]",< 5 nM
4,CCc1cc(-c2ccc(NS(=O)(=O)c3ccccc3Cl)nn2)cc2cnc(N[C@H]3CC[C@H](N)CC3)nc12 [Compound 32],< 5 nM
5,"N[C@H]1CC[C@H](Nc2ncc3cc(-c4cnc(NS(=O)(=O)c5ccccc5Cl)c(F)c4)ccc3n2)CC1 [Compound 54, N-(5-(2-(((1r,4r)-4-aminocyclohexyl)amino)quinazolin-6-yl)-3-fluoropyridin-2-yl)-2-chlorobenzene-sulfonamide]",5 to 50 nM
6,"CCc1cc(-c2ccc(NS(=O)(=O)c3ccccc3Cl)c(F)c2)cc2cnc(N[C@H]3CC[C@H](N)CC3)nc12 [Compound 24, N-(4-(2-(((1r,4r)-4-aminocyclohexyl)amino)-8-ethylquinazolin-6-yl)-2-fluorophenyl)-2-chlorobenzene-sulfonamide]",< 5 nM
7,"CCc1cc(-c2ccc(NS(=O)(=O)c3ccccc3Cl)c(F)c2)cc2cnc(N[C@H]3CC4C[C@@H](N)CC4C3)nc12 (stereo partly drawn) [Compound 84, N-(4-(2-(((2s,5s)-5-aminoocta-hydropentalen-2-yl)amino)-8-ethylquinazolin-6-yl)-2-fluorophenyl)-2-chlorobenzene-sulfonamide]",5 to 50 nM
8,"N[C@H]1CC[C@H](Nc2cc3ccc(-c4ccc(NS(=O)(=O)c5ccccc5Cl)c(F)c4)cc3cn2)CC1 [Compound 57, N-(4-(3-(((1r,4r)-4-aminocyclohexyl)amino)isoquinolin-7-yl)-2-fluorophenyl)-2-chlorobenzene-sulfonamide]",< 5 nM
9,"COc1nc(NS(=O)(=O)c2ccccc2Cl)c(F)cc1-c1cc(C)c2nc(N[C@H]3CC[C@H](N(C)C)CC3)ncc2c1 [Compound 145, 2-chloro-N-(5-(2-(((1r,4r)-4-(dimethylamino)cyclohexyl)amino)-8-methylquinazolin-6-yl)-3-fluoro-6-methoxypyridin-2-yl)benzenesulfonamide]",< 5 nM
10,"CCc1cc(-c2ccc(NS(=O)(=O)c3ccccc3Cl)nc2OC)cc2cnc(N[C@H]3CC[C@H](N(C)C)CC3)nc12 [Compound 99, 2-chloro-N-(5-(2-(((1r,4r)-4-(dimethylamino)cyclohexyl)amino)-8-ethylquinazolin-6-yl)-6-methoxypyridin-2-yl)benzenesulfonamide]",< 5 nM
11,"CCc1cc(-c2cnc(NS(=O)(=O)c3ccccc3Cl)nc2C)cc2cnc(N[C@H]3CC[C@H](N)CC3)nc12 [Compound 23, N-(5-(2-(((1r,4r)-, 4-aminocyelohexyl)amino)-8-ethylquinazolin-6-yl)-4-methylpyrimidin-2-yl)-2-ehlorobenzene-sulfonamide]",< 5 nM
12,"CCc1cc(-c2ccc(NS(=O)(=O)c3ccccc3Cl)c(F)c2)cc2cnc(N[C@@H]3CCC[C@H](N)C3)nc12 [Compound 72, N-(4-(2-(((1R,3S)-3-aminocyclohexyl)amino)-8-ethylquinazolin-6-yl)-2-fluorophenyl)-2-chlorobenzene-sulfonamide]",100 to 10000 nM
13,"COc1nc(NS(=O)(=O)c2ccccc2Cl)c(F)cc1-c1cc(F)c2nc(N[C@H]3CC[C@H](N(C)C)CC3)ncc2c1 [Compound 155, 2-chloro-N-(5-(2-(((1r,4r)-4-(dimethylamino)cyclohexyl)amino)-8-fluoroquinazolin-6-yl)-3-fluoro-6-methoxypyridin-2-yl)benzenesulfonamide]",50 to 100 nM
14,"CCc1cc(-c2ccc(NS(=O)(=O)c3ccccc3Cl)nc2OC)cc2cnc(N[C@H]3CC[C@H](NC)CC3)nc12 [Compound 116, 2-chloro-N-(5-(8-ethyl-2-(((1r,4r)-4-(methylamino)cyclohexyl)amino)quinazolin-6-yl)-6-methoxypyridin-2-yl)benzenesulfonamide]",< 5 nM
15,CCc1cc(-c2ccc(NS(=O)(=O)c3ccccc3Cl)c(F)c2)cc2cnc(N[C@@H]3CC[C@@H](N)[C@H](C)C3)nc12 [Compound 74],< 5 nM
16,"CCc1cc(-c2ccc(NS(=O)(=O)c3ccccc3Cl)c(F)c2)cc2cnc(N[C@@H]3CC[C@H](N)C3)nc12 [Compound 79, N-(4-(2-(((1R,3S)-3-aminocyclopentyl)amino)-8-ethylquinazolin-6-yl)-2-fluorophenyl)-2-chlorobenzene-sulfonamide]",5 to 50 nM

# Other lines, results leading:
row,EC50,SMILES
1,< 5 nM,"CCc1c(F)c(-c2cc(F)c(NS(=O)(=O)c3ccccc3Cl)nc2C)cc2cnc(N[C@H]3CC[C@H](N(C)C)CC3)nc12 [Compound 162, 2-chloro-N-(5-(2-(((1r,4r)-4-(dimethylamino)cyclohexyl)amino)-8-ethyl-7-fluoroquinazolin-6-yl)-3-fluoro-6-methylpyridin-2-yl)benzenesulfonamide]"
2,< 5 nM,"CCc1cc(-c2ccc(NS(=O)(=O)c3ccccc3C)nc2OC)cc2cnc(NC3CCC(NC)CC3)nc12 (stereo not drawn) [Compound 118, N-(5-(8-ethyl-2-(((1r,4r)-4-(methylamino)cyclohexyl)amino)quinazolin-6-yl)-6-methoxypyridin-2-yl)-2-methylbenzenesulfonamide]"
3,50 to 100 nM,"CCc1cc(-c2ccc(NS(=O)(=O)c3ccccc3Cl)c(F)c2)cc2cnc(N[C@H]3CC4C[C@H](N)CC4C3)nc12 (stereo partly drawn) [Compound 83, N-(4-(2-(((2r,5r)-5-aminoocta-hydropentalen-2-yl)amino)-8-ethylquinazolin-6-yl)-2-fluorophenyl)-2-chlorobenzene-sulfonamide]"
4,< 5 nM,"N[C@H]1CC[C@H](Nc2ncc3cc(-c4ccc(NS(=O)(=O)c5ccccc5Cl)cc4)ccc3n2)CC1 [Compound 26, N-(4-(2-(((lr,4r) 4-aminocyclohexyl)amino)quinazolin-6-yl)phenyl)-2-chlorobenzene-sulfonamide]"
5,50 to 100 nM,"N[C@H]1CC[C@H](Nc2ncc3cc(-c4ncc(NS(=O)(=O)c5ccccc5Cl)cc4F)ccc3n2)CC1 [Compound 51, N-(6-(2-(((1r,4r)-4-aminocyclohexyl)amino)quinazolin-6-yl)-5-fluoropyridin-3-yl)-2-chlorobenzene-sulfonamide]"
6,< 5 nM,"CCc1cc(-c2ccc(NS(=O)(=O)c3ccccc3Cl)nc2C)cc2cnc(N[C@H]3CC[C@H](N(C)CC4CCC4)CC3)nc12 [Compound 130, 2-chloro-N-(5-(2-(((1r,4r)-4-((cyclobutylmethyl)(methyl)amino)cyclohexyl)amino)-8-ethylquinazolin-6-yl)-6-methylpyridin-2-yl)benzenesulfonamide]"
7,100 to 10000 nM,"N[C@H]1CC[C@H](Nc2ncc3cc(-c4nnc(NS(=O)(=O)c5ccccc5Cl)s4)ccc3n2)CC1 [Compound 89, N-(5-(2-(((lr,4r)-4-aminocyclohexyl)amino)quinazolin-6-yl)-1,3,4-thiadiazol-2-yl)-2-chlorobenzene-sulfonamide]"
8,< 5 nM,"CCc1cc(-c2ccc(NS(=O)(=O)c3cccc(Cl)c3Cl)nc2C)cc2cnc(N[C@H]3CC[C@H](N(C)C)CC3)nc12 [Compound 152, 2,3-dichloro-N-(5-(2-(((1r,4r)-4-(dimethylamino)cyclohexyl)amino)-8-ethylquinazolin-6-yl)-6-methylpyridin-2-yl)benzenesulfonamide]"
9,100 to 10000 nM,"CCc1cc(-c2cnc(NS(=O)(=O)c3ccccc3Cl)cc2OC)cc2cnc(N[C@H]3CC[C@H](N)CC3)nc12 [Compound 92, N-(5-(2-(((1r,4r)-4-aminocyclohexyl)amino)-8-ethylquinazolin-6-yl)-4-methoxypyridin-2-yl)-2-chlorobenzene-sulfonamide]"
10,< 5 nM,"N[C@H]1CC[C@H](Nc2ncc3cc(-c4ccc(NS(=O)(=O)c5ccccc5Cl)c(F)c4F)ccc3n2)CC1 [Compound 56, N-(4-(2-(((1r,4r)-4-aminocyclohexyl)amino)quinazolin-6-yl)-2,3-difluorophenyl)-2-chlorobenzene-sulfonamide]"
11,< 5 nM,"CCc1cc(-c2ccc(NS(=O)(=O)c3ccccc3Cl)cc2F)cc2cnc(N[C@H]3CC[C@H](N)CC3)nc12 [Compound 35, N-(4-(2-(((lr,4r)-4-aminocyclohexyl)amino)-8-ethylquinazolin-6-yl)-3-f1uorophenyl)-2-chlorobenzene-sulfonamide]"
